Measured values as given in patent publication US6737383B1, “Herbicidal oxadiazolidines” (priority 1999, dated 2004).

Assays:
Settings in all cases: Preemergence
cocklebur = assay: Test B pre/postemergence cocklebur; format: in vivo, Xanthium strumarium
In short: (§1)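 Herbicidal effect was estimated by eye on a ten-point control scale after plants spent twelve to sixteen days in a greenhouse following soil or foliar treatment. Foliar sprays targeted plants at one to four leaves; all doses were formulated in a non-phytotoxic solvent with surfactant.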

giant foxtail = assay: Test B pre/postemergence giant foxtail; format: in vivo, Setaria faberii
In short: as §1

wheat = assay: Test B pre/postemergence wheat; format: in vivo, Triticum aestivum
In short: as §1

crabgrass = assay: Test B pre/postemergence crabgrass; format: in vivo, Digitaria sanguinalis
In short: as §1

sugar beet = assay: Test B pre/postemergence sugar beet; format: in vivo, Beta vulgaris
In short: as §1

soybean = assay: Test B pre/postemergence soybean; format: in vivo, Glycine max
In short: as §1

surinam grass = assay: Test B pre/postemergence surinam grass; format: in vivo, Brachiaria decumbens
In short: as §1

velvetleaf = assay: Test B pre/postemergence velvetleaf; format: in vivo, Abutilon theophrasti
In short: as §1

rape = assay: Test B pre/postemergence rape; format: in vivo, Brassica napus
In short: as §1

bedstraw = assay: Test B pre/postemergence bedstraw; format: in vivo, Galium aparine
In short: as §1

purple nutsedge = assay: Test B pre/postemergence purple nutsedge; format: in vivo, Cyperus rotundus
In short: as §1

blackgrass = assay: Test B pre/postemergence blackgrass; format: in vivo, Alopecurus myosuroides
In short: as §1

pigweed = assay: Test B pre/postemergence pigweed; format: in vivo, Amaranthus retroflexus
In short: as §1

corn = assay: Test B pre/postemergence corn; format: in vivo, Zea mays
In short: as §1

wild oat = assay: Test B pre/postemergence wild oat; format: in vivo, Avena fatua
In short: as §1

morningglory = assay: Test B pre/postemergence morningglory; format: in vivo, Ipomoea hederacea
In short: as §1

[1] = Rate 125 g/ha, scale of 0 to 10 where 0 is no effect and 10 is complete control
[2] = Rate 250 g/ha, scale 0 (no effect) to 10 (complete control)
[3] = Rate 500 g/ha, scale 0 to 10 (0 no effect, 10 complete control)

CCOC(CC)n1c(=O)on(C(=O)N(c2ccc(F)cc2)C(C)C)c1=O (stereo not shown) [Compound 742]
0: Plant response rating, Cocklebur (cocklebur; [1]) | Cocklebur plant response rating (cocklebur; [2]) | Cocklebur plant response rating (cocklebur; Rate 62 g/ha, scale 0 to 10) | Cocklebur plant response rating (cocklebur; [3]) | Plant response rating, Giant foxtail (giant foxtail; [1]) | Giant foxtail plant response rating (giant foxtail; [2]) | Giant foxtail plant response rating (giant foxtail; Rate 62 g/ha, scale 0 to 10) | Giant foxtail plant response rating (giant foxtail; [3]) | Plant response rating, Wheat (wheat; [1]) | Wheat plant response rating (wheat; [2]) | Wheat plant response rating (wheat; Rate 62 g/ha, scale 0 to 10) | Wheat plant response rating (wheat; [3]) | Plant response rating, Crabgrass (crabgrass; [1]) | Crabgrass plant response rating (crabgrass; [2]) | Crabgrass plant response rating (crabgrass; Rate 62 g/ha, scale 0 to 10) | Crabgrass plant response rating (crabgrass; [3]) | Plant response rating, Sugarbeets (sugar beet; [1]) | Sugarbeets plant response rating (sugar beet; [2]) | Sugarbeets plant response rating (sugar beet; Rate 62 g/ha, scale 0 to 10) | Sugarbeets plant response rating (sugar beet; [3]) | Plant response rating, Soybean (soybean; [1]) | Soybean plant response rating (soybean; [2]) | Soybean plant response rating (soybean; Rate 62 g/ha, scale 0 to 10) | Soybean plant response rating (soybean; [3]) | B. signalgrass plant response rating (surinam grass; Rate 62 g/ha, scale of 0 to 10 where 0 is no effect and 10 is complete control) | Plant response rating, B. signalgrass (surinam grass; [1]) | B. signalgrass plant response rating (surinam grass; [2]) | B. signalgrass plant response rating (surinam grass; [3]) | Plant response rating, Velvetleaf (velvetleaf; [1]) | Velvetleaf plant response rating (velvetleaf; [2]) | Velvetleaf plant response rating (velvetleaf; Rate 62 g/ha, scale 0 to 10) | Velvetleaf plant response rating (velvetleaf; [3]) | Plant response rating, Rape (rape; [1]) | Rape plant response rating (rape; [2]) | Rape plant response rating (rape; Rate 62 g/ha, scale 0 to 10) | Rape plant response rating (rape; [3]) | Plant response rating, Bedstraw (bedstraw; [1]) | Bedstraw plant response rating (bedstraw; [2]) | Bedstraw plant response rating (bedstraw; Rate 62 g/ha, scale 0 to 10) | Bedstraw plant response rating (bedstraw; [3]) | Plant response rating, Nutsedge (purple nutsedge; [1]) | Nutsedge plant response rating (purple nutsedge; [2]) | Nutsedge plant response rating (purple nutsedge; Rate 62 g/ha, scale 0 to 10) | Nutsedge plant response rating (purple nutsedge; [3]) | Plant response rating, Blackgrass (blackgrass; [1]) | Blackgrass plant response rating (blackgrass; [2]) | Blackgrass plant response rating (blackgrass; Rate 62 g/ha, scale 0 to 10) | Blackgrass plant response rating (blackgrass; [3]) | Plant response rating, Redroot pigweed (pigweed; [1]) | Redroot pigweed plant response rating (pigweed; [2]) | Redroot pigweed plant response rating (pigweed; Rate 62 g/ha, scale 0 to 10) | Redroot pigweed plant response rating (pigweed; [3]) | Plant response rating, Corn (corn; [1]) | Corn plant response rating (corn; [2]) | Corn plant response rating (corn; Rate 62 g/ha, scale 0 to 10) | Corn plant response rating (corn; [3]) | Plant response rating, Wild oats (wild oat; [1]) | Wild oats plant response rating (wild oat; [2]) | Wild oats plant response rating (wild oat; Rate 62 g/ha, scale 0 to 10) | Wild oats plant response rating (wild oat; [3]) | Plant response rating, Morningglory (morningglory; [1]) | Morningglory plant response rating (morningglory; [2]) | Morningglory plant response rating (morningglory; Rate 62 g/ha, scale 0 to 10) | Morningglory plant response rating (morningglory; [3])
